Values after ≈ are worked out from the molar mass of the structure shown.
Columns and labels:
[1] = Cu(II) complex formation and stability constants by UV-Vis spectrophotometric titrations; format: physicochemical; conditions: for pCu (= −log[Cu(II)]): pH 7.4, c Cu(II) = 1 μM, computed from stability constants
Description: The complex formation processes of L^1, L^5 and L^6 with Cu(II) ions were studied by UV-Vis spectrophotometry in 30% (v/v) DMSO/H2O using relatively low concentrations (c L = 50–60 μM), due to the limited water solubility of the ligand precursors as well as of the Cu(II) complexes (see thermodynamic solubility data in aqueous media in Table 2 and Table 3). L^1 was selected as the simplest compound of the studied ligand series, whereas L^5 and L^6 were selected to compare with the oxidovanadium(IV) system ([Ribeiro et al., 2022]). The solution stability and stoichiometry of the Cu(II) complexes were determined by the evaluation of the UV-Vis spectra recorded at various pH values (representative spectra are shown for the Cu(II) ‒ L^1 and Cu(II) ‒ L^6 systems in Figures 3A,B and for Cu(II) ‒ L^5 in Supplementary Figure S10A). The computed overall stability constants and pK a values of the complexes are collected in Table 3. The formation of only mono-ligand complexes was found with [Cu(LH)]^+, [Cu(L)], and [Cu(LH‒1)]^‒ (and [Cu(LH‒2)]^2‒ in the case of L^6) compositions, and their computed molar absorbance spectra are shown in Figures 3C, D, Supplementary Figure S10B.
An Agilent Cary 8454 diode array spectrophotometer was used to record the UV-Vis spectra in the range of 200–800 nm. Titrations were carried out with a Metrohm 665 Dosimat burette and an Orion 710A pH-meter equipped with a Metrohm combined electrode. A ionic strength of 0.10 M (KCl) was used to keep the activity coefficients constant. The titrations were performed with 0.10 M carbonate-free KOH solution in a 30% (v/v) DMSO/H2O solvent mixture. […] The average water ionization constant (pKw) is 14.53 ± 0.05 in the 30% (v/v) DMSO/H2O solvent mixture. The pKa values of the ligand precursors and the logβ values for the Cu(II) complexes were determined in 30% (v/v) DMSO/H2O in the same way as it was done in our previous publications (9, 11).
Spectrophotometric titrations were carried out on samples containing the ligands at 50 μM concentration, in the pH range from 2.0 to 11.5 in the absence or the presence of 1, 0.5 or 0.25 equiv. Cu(II) ions, using 10 cm^3 sample volumes. Proton dissociation constants (pKa) of the ligand precursors as well as stoichiometry and stability constants of the Cu(II) complexes (β) were calculated by the computer program PSEQUAD (12). The usual definition of overall (β) and stepwise (K) formation constants is used: […]

[2] = target: bovine serum albumin (BSA) (Bos taurus, UniProt P02769); test: BSA fluorescence quenching; format: binding; set-up: Affinity constant K ± SD: unit not given here; conditions: fluorescence quenching; HypSpec2014; 1:1 species assumed
Chain of bovine serum albumin (BSA) (P02769 25-607): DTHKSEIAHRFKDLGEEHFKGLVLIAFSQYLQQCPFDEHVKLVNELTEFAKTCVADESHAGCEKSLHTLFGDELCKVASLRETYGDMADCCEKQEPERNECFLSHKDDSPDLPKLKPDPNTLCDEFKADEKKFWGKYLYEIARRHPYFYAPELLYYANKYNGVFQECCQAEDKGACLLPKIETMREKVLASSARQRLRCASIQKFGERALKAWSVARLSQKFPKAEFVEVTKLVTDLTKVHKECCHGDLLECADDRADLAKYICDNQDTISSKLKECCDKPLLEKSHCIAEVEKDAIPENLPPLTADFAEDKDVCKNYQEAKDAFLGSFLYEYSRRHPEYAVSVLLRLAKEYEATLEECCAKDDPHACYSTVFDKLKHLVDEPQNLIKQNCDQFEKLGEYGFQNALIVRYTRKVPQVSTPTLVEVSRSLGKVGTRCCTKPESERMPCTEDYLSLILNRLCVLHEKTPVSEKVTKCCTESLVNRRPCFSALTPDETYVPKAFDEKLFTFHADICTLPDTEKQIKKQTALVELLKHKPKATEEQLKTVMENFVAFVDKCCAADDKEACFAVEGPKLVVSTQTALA
Description: To evaluate the interaction of the compounds, both organic and Cu(II) complexes, with bovine serum albumin (BSA) fluorescence spectra were measured. In a typical fluorescence experiment, to a solution of 1.5 μM of BSA in the same buffer, successive aliquots of a stock solution of each compound in DMSO were added directly to the cuvette (optical path 1.0 cm). The fluorescence emission was recorded between 310 and 600 nm with excitation at 295 nm. The final DMSO % was kept below 2% (v/v). The Stern-Volmer plots were built using the emission at 340 nm and blank samples (in the absence of BSA) with the same concentration of the complexes were recorded and subsequently subtracted from the corresponding emission spectra containing the fluorophore. Moreover, the fluorescence emission intensity was corrected for reabsorption and inner filter effects using UV-Vis absorption data recorded for each sample, since all complexes absorb in the measured wavelength range (19, 20).
The interaction of the organic compounds and Cu(II) complexes with BSA was monitored by studying the quenching of albumin’s fluorescence emission with increasing concentrations of the complexes (25). Overall, the intensity of the Trp emission decreases with the addition of the complexes, except for 8 (see Figs. S19). The Stern-Volmer relationship was used to analyse the fluorescence quenching process:
where I0 and I are the fluorescence intensities in the absence and in the presence of quencher, kq is the bimolecular quenching rate, τ0 is the fluorophore lifetime in the absence of the quencher (6.22 ns) (26) and [Q] is the quencher concentration. […] This linear relationship is obeyed for all complexes except 5, where a downward curvature is observed. This can be an indication of two distinct binding sites, corresponding to two populations of fluorophores, one being accessible and other inaccessible or buried inside the protein. In such cases, the Stern-Volmer relation can be modified to (27):
where ΔI = I0 – I, Ka is the Stern-Volmer constant for the accessible fraction and fa is the fraction of accessible fluorophore. […] As first approximation, the total concentration of quencher was used to check the quenching mechanism. […] As all systems presented high absorbance values in the measured range of wavelengths, no excess of quencher was used and, therefore, 1:1 species will be assumed for these interactions.

[3] = test system: A-375 cells; test: Sulforhodamine B (SRB) cell viability assay; format: cell-based; conditions: Homo sapiens, 72 h
Description: (§1) Copper compounds were tested, along with the free ligands and cisplatin as the positive control, for their cytotoxicity on both melanoma (A-375) and lung adenocarcinoma (A-549) cell lines in the concentration range 0.78–50 μM. Following 72 h of incubation, cell viability was measured via sulforhodamine B (SRB) assay (Supplementary Figure S25).
(§2) A-375 cells (ATCC, CRL-3222) were grown in Dulbecco’s Modified Eagle Medium with high glucose (Gibco #11965118) and A-549 (ATCC, CCL-185) cells were grown in Dulbecco’s Modified Eagle Medium F-12 (Gibco #11320033), supplemented with 10% FBS (Gibco, #10500064) and Penicillin-Streptomycin (10,000 U/mL, Gibco, #15140122). Cells were incubated at 37 °C, 5% CO2 incubator and subcultured every 3 days.
(§3) All the tested complexes were dissolved in DMSO (10 mM stock solution), and aliquots were stored at -20 °C, thawed on the experiment day and used only once. For SRB cell viability assay, A-375 and A-549 cells were seeded on 96-well plates (4×10^3 cells/well) and treated with serial dilutions of indicated compounds (with a concentration range of 0-50 μM, 72 h). Trichloroacetic acid (TCA) was added to wells for fixation at a final concentration of 10%, for 1 h at 4 °C. Each well was washed five times with ddH2O, dried, and incubated with 0.4% (w/v) SRB dye (50 µL/well) for 30 min at room temperature. The wells were washed with 1% acetic acid (v/v) five times, and 150 µL of 10 mM Tris solution was added to dissolve the stain. Colorimetric measurements were taken at λ = 564 nm. Viability percentage was calculated as follows: % Cell Viability = [100 × (sample Abs.-blank) / (non-treated control Abs.-blank)].

[4] = test system: A-549 cells; test: Sulforhodamine B (SRB) cell viability assay; format: cell-based; conditions: Homo sapiens, A549, 72 h
Description: as §1, §2, §3

[5] = set-up: method as in Ribeiro et al., 2022; conditions: 30% (v/v) DMSO/H2O; t = 25.0°C; I = 0.1 M (KCl); ref Ribeiro et al., 2022; cited from earlier work
[6] = set-up: method as in Ribeiro et al., 2022; conditions: ligand precursors; pH 7.4; ref Ribeiro et al., 2022; cited from earlier work
[7] = Cu(II) complex of the ligand, 30% (v/v) DMSO/H2O, t = 25.0°C, I = 0.10 M (KCl)
[8] = proton dissociation of the Cu(II) complex, 30% (v/v) DMSO/H2O

With O=C(N/N=C/c1ccc2cccc(O)c2n1)c1ccccc1 [L^1] the “logβ [Cu(L)]” value [1, 7] was 17.79 ± 0.02, the “logβ [Cu(LH)]^+” value [1, 7] was 23.41 ± 0.02 and the “logβ [Cu(LH‒1)]^‒” value [1, 7] was 7.39 ± 0.03. The “pCu (= −log[Cu(II)])” value ([1]; c L = 1 μM) was 8.96, the “pCu (= −log[Cu(II)])” value ([1]; c L = 10 μM) was 12.59 and the “pK a [Cu(L)]” value [1, 8] was 10.40. For the same compound, the “pK a [Cu(LH)]^+” value [1, 8] was 5.62, the “Affinity constant K ± SD” value [2] was “(4.6 ± 0.2) × 10^5” and the IC50 [3] was 12.3 ± 0.5 µM. The IC50 [4] was over 50 µM, the “pK a1” value [5] was 2.24 and the “pK a2” value [5] was 9.51. The “pK a3” value [5] was 11.45 and the “thermodynamic solubility S 7.4” value [6] was 3.7 µM (≈ 1.08 µg/mL).
